Converted amounts (≈) assume the structure as drawn. The source made the active and inactive calls. No cut-off for these calls is given here.

The inhibition is the drop in the measured response relative to a control, in per cent.

Assay [1] has as its system P388. The experiment in a line: The compound was tested in vivo for life prolongation against mouse P388 tumor cells at 8 mg/kg concentration. It counts as functional.
Assay [2] has as its system Nucleic Acid. Put plainly: The compound was tested for inhibitory activity against DNA relaxation by DNA topoisomerase I at dose 30 uM. The assay is classed as functional.
The test system of another assay is KB cells (Homo sapiens). The experiment in a line: The cytotoxic activity in vitro by 9KB assay method. The note with it: read-out: ED50 (the source's name).
Assay [3] in a line: (§1) The cytotoxic activity was in vitro tested by 9PS assay method. The note with it: Mus musculus; read-out: ED50 (the source's name). It counts as functional.
The test system of assay [4] is Nucleic Acid. Put plainly: The compound was tested for inhibitory activity against DNA relaxation by DNA topoisomerase I at dose 10 uM. The assay is classed as functional.
Assay [5] concerns Nucleic Acid. The experiment in a line: The compound was tested for inhibitory activity against DNA relaxation by DNA topoisomerase I at dose 100 uM. The assay is classed as functional.
Assay [6] has as its system Nucleic Acid. The experiment in a line: The compound was tested for inhibitory activity against DNA relaxation by DNA topoisomerase I at dose 10-30 uM; Inactive. The assay is classed as functional.
Assay [7] relates to L1210 (Mus musculus). The experiment in a line: The compound was tested in vivo for life prolongation against mouse L1210 tumor cells at 80 mg/kg concentration; No toxicity.
In assay [8] the test system is L1210. The experiment in a line: The compound was tested in vivo for life prolongation against mouse L1210 tumor cells at 80 mg/kg concentration; Inactive. Also noted: dose 80 mg/kg. It counts as functional, organism-based.
The species entered for assay [9] is Mus musculus. The assay is described as §1. The assay is classed as functional. The note with it: read-out: ED50 (the source's name).
For assay [10], the species on record is Mus musculus. Put plainly: The cytotoxic activity in vitro by 9KB assay method. Conditions: read-out: ED50 (the source's name). The assay is classed as functional.
Assay [11] is described as follows: The cytotoxic activity was in vitro tested by 9PS assay method. The assay is classed as functional. The note with it: Mus musculus; read-out: ED50 (the source's name).
Assay [12] concerns L1210. The experiment in a line: The compound was tested in vivo for life prolongation against mouse L1210 tumor cells at 30 mg/kg concentration; Inactive. It counts as functional, organism-based. On the set-up: dose 30 mg/kg.
The test system of assay [13] is L1210 (Mus musculus). The experiment in a line: The compound was tested in vivo for life prolongation against mouse L1210 tumor cells at 30 mg/kg concentration; Nontoxic.
The subject of assay [14] is P388. The experiment in a line: The compound was tested in vivo for life prolongation against mouse P388 tumor cells at 40 mg/kg concentration; No toxicity. It counts as functional, organism-based. Also noted: dose 40 mg/kg.
Assay [15] has as its system L1210. The experiment in a line: The compound was tested in vivo for life prolongation against mouse L1210 tumor cells at 40 mg/kg concentration; Inactive. The assay is classed as functional, organism-based. Also noted: dose 40 mg/kg.
The test system of assay [16] is P388. Put plainly: The compound was tested in vivo for life prolongation against mouse P388 tumor cells at 4 mg/kg concentration. It counts as functional.
Assay [17] has as its system L1210. Put plainly: The compound was tested in vivo for life prolongation against mouse L1210 tumor cells at 4 mg/kg concentration. The assay is classed as functional.

Take `CCC1(O)C(=O)OCc2c1cc1n(c2=O)Cc2cc3ccccc3nc2-1` (centres undefined): the T/C x100 with P388 [1] worked out at 220%. Also, the inhibition with Nucleic Acid [2] stood at 48%; in the assay with Nucleic Acid [4], 39%; in the assay with Nucleic Acid [5] it was 70%. For the same molecule, the values for the EC50 (in the assay on KB cells (Homo sapiens); in assay [3]) were 0.03 µg/mL (≈ 0.0861 µM) and 0.04 µg/mL (≈ 0.115 µM), respectively.
For the molecule `CC[C@@]1(O)C(=O)NCc2c1cc1n(c2=O)Cc2cc3ccccc3nc2-1`, the inhibition entry with Nucleic Acid [6] was “inactive”. The “T/C x100” value with L1210 (Mus musculus) [7] is “No toxicity”. Moreover, in the assay with L1210 [8], the “T/C x100” value was “inactive”. In addition, the figures for the EC50 in the assay with KB cells (Homo sapiens) and in the assay filed under Mus musculus [9] were > 10 µg/mL and 3 µg/mL (≈ 8.64 µM), respectively.
Molecule `CCC1(O)C(=O)OCc2c1ccc1c2-c2nc3ccccc3cc2C1` (centres undefined) came in with an inhibition in the assay on Nucleic Acid [2] of 0%. Also, the EC50 with KB cells (Homo sapiens) and in the assay listed under Mus musculus [9] was > 10 µg/mL in each case.
As for `CCC1(O)C(=O)OCc2cc3c(cc21)-c1nc2ccccc2cc1C3` (centres undefined), the inhibition with Nucleic Acid [2] was 6%; in the assay on Nucleic Acid [5], 38%. Moreover, the values for the EC50 (in the assay filed under Mus musculus [10]; in assay [11]) were 1.3 µg/mL (≈ 3.92 µM) and 2.5 µg/mL (≈ 7.54 µM), respectively.
Regarding `CCC1(N=[N+]=[N-])C(=O)OCc2c1cc1n(c2=O)Cc2cc3ccccc3nc2-1` (centres undefined), the inhibition result with Nucleic Acid [6] was “inactive”. The EC50 in the assay with KB cells (Homo sapiens) and in the assay listed under Mus musculus [9] was > 10 µg/mL each time. The “T/C x100” value in the assay with L1210 [12] was “inactive”. In the assay on L1210 (Mus musculus) [13], the “T/C x100” value is “Non-toxic”.
Consider `CCC1(N)C(=O)OCc2c1cc1n(c2=O)Cc2cc3ccccc3nc2-1.Cl` (centres undefined), for which the inhibition entry in the assay on Nucleic Acid [6] is “inactive”. The results for the EC50 in the assay with KB cells (Homo sapiens) and in the assay filed under Mus musculus [9] were 1.6 µg/mL and 3.4 µg/mL, respectively. In addition, the “T/C x100” value in the assay on P388 [14] is “No toxicity”. Further, the “T/C x100” value with L1210 [15] was “inactive”.
For `CC[C@@]1(O)C(=O)OCc2c1cc1n(c2=O)Cc2cc3ccccc3nc2-1` [CAMPTOTHECIN], the T/C x100 in the assay with P388 [16] turned out to be 199%; in the assay on L1210 [17], 200%. Moreover, the inhibition in the assay on Nucleic Acid [2] amounted to 85%; in the assay with Nucleic Acid [4] it was 76%. The EC50 was determined as 0.02 µg/mL (≈ 0.0574 µM) in the assay on KB cells (Homo sapiens) and 0.08 µg/mL (≈ 0.23 µM) in the assay listed under Mus musculus [9].
